Experimental data from patent US20080318943A1, “Compounds and Uses Thereof - 848” (ASTRAZENECA AB, priority 2007, published 2008).
pKi: −log10 of the molar value. Several values for one entry are separate records, joined by “and”; a condition that tells them apart may be missing. Equal values may be shown once.

Experiments:
[1] = biological target: T1, GABAA2 receptors (α2, β3, γ2 receptor subunits transfected into Sf9 cells) (Homo sapiens, UniProt P18507+P47869); test: GABAA2 Binding Method ([3H]-Flunitrazepam displacement); conditions: [3H]-Flunitrazepam ~2 nM, α2β3γ2 Sf9 membranes, 1 hr at 4° C.
T1 construct: host or cells: Sf9 cells (membranes)
Method: In some embodiments, the binding test is directed to a subtype of GABAA receptors, such as GABAA1 receptors (i.e., those containing the α1 subunit), GABAA2 receptors (i.e., those containing the α2 subunit), GABAA3 receptors (i.e., those containing the α3 subunit) and GABAA5 receptors (i.e., those containing the α5 subunit).
[^3H]-Flunitrazepam (Cat #NET567): Prepare 10× stock=20 nM, [F} in assay=˜2 nM
1. […] Add 5 ul of 30 uM flumazenil to wells 12 D-E for 50% control wells.
5. Add 25 μl [^3H]-Flunitrazepam (Automation Program 6). Incubate for 1 hr at 4° C.
6. Collect membranes on a cell harvester onto GF/B filter plates (pre-wet with dH2O and wash 5×400 μl/well, with cold assay buffer. (First 3 washes are considered hot; last two are cold.)
Data is analyzed by calculating percent of control, IC50, and Ki in an XLfit template. The following formula is used in the templates: […]

GABAA receptor α1β2γ2 = biological target: T2, GABAA receptor α1β2γ2 (Homo sapiens, UniProt P14867+P18507); test: Two-electrode voltage-clamp potentiation of GABA EC10 current in Xenopus oocytes, GABAA1; format: cell-based; conditions: percentage potentiation of GABA EC10 current divided by that of diazepam
T2 construct: expressed in transfected cells; host or cells: Xenopus laevis oocytes injected with cRNA
Method: GABAA receptors were heterologously expressed in Xenopus oocytes by injecting cRNA corresponding to human α1, α2, α3, α5, β2, P3 and γ2 subunits of the GABAA receptor genes. The specific subunit combinations (subtypes) were as follows: α1β2γ2, α2β3γ2, α3β3γ2, and α5β3γ2. The EC10 of GABA is approximated for each cell. Stability of GABA-mediated (EC10) current is established. Modulatory effect of test compound is determined and compared across subtypes. […] Thus, the assay can characterize modulatory effects and determine subtype selectivity of test compounds on major subtypes of GABAA receptors.
Xenopus laevis frogs (Xenopus I, Kalamazoo, Mich.) were anesthetized using 0.15% tricaine. Surgically removed ovarian lobes were teased out in OR2 solution (82 NaCl, 2.5 KCl, 5 HEPES, 1.5 NaH2PO4, 1 MgCl2, 0.1 EDTA, in mM, pH 7.4). The oocytes were defolliculated by incubation in 25 mL OR2 containing 0.2% collagenase 1A (SIGMA) two times for about 60 minutes on a platform shaker and stored in Leibovitz's L-15 medium. Oocytes were injected the following day in 0.5× Leibovitz's L-15 medium containing […] gentamycin, 10 units/ml penicillin, and […] streptomycin.
Capped cRNAs from the linearized vectors containing human α1, β2 and γ2 subunits of the GABAA receptor genes were mixed in ratio of […]. Oocytes were injected with 25-50 nL of mixed RNA with an appx molar ratio for α1, β2, and γ2 as 1:1:10. Oocyte recordings were done 2-10 days after injection. The same methods apply to subtypes derived from α2β3γ2, α3β3γ2, and α5β3γ2, except for 1:1:1 ratio was used for α, β, and γ subunits.
All measurements were done in a medium containing ND-96 (96 NaCl, 2 KCl, 1.8 CaCl2.2H2O, 1 MgCl2.6H2O, 5 HEPES, in mM, pH 7.5). Two-electrode voltage-clamp recording was carried out using OpusXpress amplifier (Axon Instruments, Foster City, Calif.), which allows simultaneous recording from 8 oocytes. Oocytes were impaled with two electrodes of 1-2 MΩ tip resistance when filled with 3M KCl. Recordings were begun when membrane potential became stable at potentials negative to −50-−60 mV. Membrane potential was held at −60 mV. […] The concentration of GABA corresponded to the EC10 value calculated for each oocyte. The modulator pulses started 30 s before the GABA pulse so as to allow preincubation with the modulator. A set of 3 pulses with just GABA without modulator was given prior to the modulator-containing pulses to define the baseline GABA response. Two oocytes per each experiment were dedicated to observe the effect of diazepam on GABA response to ensure the presence of γ2 subunit in the GABAA pentameric complex, which imparts diazepam sensitivity to the complex.
Current amplitude (i) was measured from baseline to peak using Clampfit (Axon Inst., Foster City, Calif.). Potentiation was calculated as percent change from the baseline GABA current flux 100×(imod/icontrol)−1) where imod=current mediated by modulator+GABA and icontrol=current mediated by GABA alone. […] Similarly, a value of −50% potentiation means the presence of modulator caused a 50% decrease in the control current. Various other data shown here were fitted and plotted using GraphPad Prism (GraphPad Software, Inc. San Diego, Calif.). The percentage potentiation was converted to relative potentiation by dividing it with percentage potentiation value obtained from the same assay with diazepam as a control.

T2 sequence (P14867 28-456): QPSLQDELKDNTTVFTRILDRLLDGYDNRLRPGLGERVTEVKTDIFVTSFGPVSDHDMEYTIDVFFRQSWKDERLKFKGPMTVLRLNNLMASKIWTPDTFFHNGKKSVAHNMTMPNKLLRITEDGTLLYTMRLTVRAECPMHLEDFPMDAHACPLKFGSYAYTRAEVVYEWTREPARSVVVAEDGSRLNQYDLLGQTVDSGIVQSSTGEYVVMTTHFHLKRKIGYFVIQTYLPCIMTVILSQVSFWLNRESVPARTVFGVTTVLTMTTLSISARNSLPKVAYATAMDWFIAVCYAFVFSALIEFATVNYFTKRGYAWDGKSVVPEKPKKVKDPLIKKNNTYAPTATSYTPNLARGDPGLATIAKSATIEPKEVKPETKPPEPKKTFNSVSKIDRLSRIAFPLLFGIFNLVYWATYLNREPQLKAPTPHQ
T2 sequence (P47870 25-512 partner limits assumed): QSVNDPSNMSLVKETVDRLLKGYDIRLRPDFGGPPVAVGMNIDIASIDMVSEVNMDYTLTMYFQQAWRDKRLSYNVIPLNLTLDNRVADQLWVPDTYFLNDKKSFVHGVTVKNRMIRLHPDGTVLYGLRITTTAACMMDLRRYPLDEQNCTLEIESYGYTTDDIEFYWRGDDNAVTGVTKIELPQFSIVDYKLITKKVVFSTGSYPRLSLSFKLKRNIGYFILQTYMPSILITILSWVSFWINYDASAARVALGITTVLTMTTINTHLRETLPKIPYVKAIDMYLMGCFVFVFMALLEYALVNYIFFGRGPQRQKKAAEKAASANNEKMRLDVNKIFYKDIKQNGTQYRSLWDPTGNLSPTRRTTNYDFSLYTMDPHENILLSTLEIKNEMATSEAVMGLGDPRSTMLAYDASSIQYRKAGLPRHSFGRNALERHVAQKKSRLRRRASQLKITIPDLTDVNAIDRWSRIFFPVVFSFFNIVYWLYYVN
T2 sequence (P18507 40-475): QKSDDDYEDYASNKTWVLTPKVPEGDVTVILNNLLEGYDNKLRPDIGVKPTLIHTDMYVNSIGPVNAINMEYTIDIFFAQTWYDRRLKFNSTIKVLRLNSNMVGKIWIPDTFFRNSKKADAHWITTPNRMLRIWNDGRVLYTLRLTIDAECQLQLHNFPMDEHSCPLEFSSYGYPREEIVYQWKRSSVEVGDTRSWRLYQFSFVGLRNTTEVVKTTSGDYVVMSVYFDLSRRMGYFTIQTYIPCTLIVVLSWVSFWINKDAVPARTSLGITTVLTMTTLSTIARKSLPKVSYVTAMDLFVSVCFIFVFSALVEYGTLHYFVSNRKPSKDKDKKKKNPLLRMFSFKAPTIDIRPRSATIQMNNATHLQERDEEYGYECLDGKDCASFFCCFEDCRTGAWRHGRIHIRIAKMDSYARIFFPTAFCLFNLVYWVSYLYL
T1 sequence (P47869 29-451): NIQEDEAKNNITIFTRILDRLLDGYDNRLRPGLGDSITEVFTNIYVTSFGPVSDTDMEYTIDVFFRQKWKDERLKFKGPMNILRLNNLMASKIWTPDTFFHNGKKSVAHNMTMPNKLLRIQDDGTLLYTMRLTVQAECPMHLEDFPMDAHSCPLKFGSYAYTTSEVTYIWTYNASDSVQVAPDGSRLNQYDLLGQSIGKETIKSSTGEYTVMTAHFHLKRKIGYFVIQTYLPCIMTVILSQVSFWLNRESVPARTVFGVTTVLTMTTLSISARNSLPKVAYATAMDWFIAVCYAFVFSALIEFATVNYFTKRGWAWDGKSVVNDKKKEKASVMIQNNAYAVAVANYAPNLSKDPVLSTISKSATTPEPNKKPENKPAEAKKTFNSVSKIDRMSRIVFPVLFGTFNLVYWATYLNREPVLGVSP
T1 sequence (P28472 26-473 partner): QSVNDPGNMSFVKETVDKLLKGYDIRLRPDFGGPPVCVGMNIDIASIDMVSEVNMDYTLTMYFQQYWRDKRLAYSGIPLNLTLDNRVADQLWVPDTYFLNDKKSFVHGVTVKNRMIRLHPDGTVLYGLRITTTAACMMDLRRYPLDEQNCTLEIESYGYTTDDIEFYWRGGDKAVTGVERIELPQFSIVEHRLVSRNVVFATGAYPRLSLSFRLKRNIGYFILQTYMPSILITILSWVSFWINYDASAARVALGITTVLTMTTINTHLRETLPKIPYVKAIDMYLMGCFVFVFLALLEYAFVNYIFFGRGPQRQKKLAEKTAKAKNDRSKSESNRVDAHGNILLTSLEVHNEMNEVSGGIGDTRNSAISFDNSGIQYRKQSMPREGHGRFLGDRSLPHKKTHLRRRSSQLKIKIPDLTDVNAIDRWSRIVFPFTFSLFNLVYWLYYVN
T1 sequence (P18507 40-475): as the sequence (P18507 40-475) above

Structure (SMILES)	pKi [1]	Relative Potentiation for GABAA1 (GABAA receptor α1β2γ2)
COc1ccc(CN2Cc3nc4c(-c5ccc(OC)c(OC)c5)cccc4c(N)c3C2=O)cc1	7.32	0.61
CCCN1Cc2nc3c(-c4cccc(C#N)c4)cccc3c(N)c2C1=O [3-(9-amino-1-oxo-2-propyl-2,3-dihydro-1H-pyrrolo[3,4-b]quinolin-5-yl)benzonitrile]	7.67	0.54
CCCN1Cc2nc3c(-c4cncc(C#N)c4)cccc3c(N)c2C1=O [5-(9-amino-1-oxo-2-propyl-2,3-dihydro-1H-pyrrolo[3,4-b]quinolin-5-yl)nicotinonitrile]	7.19	0.26
COc1ccc(CN2Cc3nc4c(-c5cc(C)ccc5OC)cccc4c(N)c3C2=O)cc1OC [9-amino-2-(3,4-dimethoxybenzyl)-5-(2-methoxy-5-methylphenyl)-2,3-dihydro-1H-pyrrolo[3,4-b]quinolin-1-one]	8.04	0.3
COc1ccc(CN2Cc3nc4c(-c5cccnc5OC)cccc4c(N)c3C2=O)cc1Cl [9-amino-2-(3-chloro-4-methoxybenzyl)-5-(2-methoxypyridin-3-yl)-2,3-dihydro-1H-pyrrolo[3,4-b]quinolin-1-one]	8.00	0.25
COc1ncc(-c2cccc3c(N)c4c(nc23)CN(Cc2ccc3c(c2)OCO3)C4=O)c(OC)n1 [9-amino-2-(benzo[d][1,3]dioxol-5-ylmethyl)-5-(2,4-dimethoxypyrimidin-5-yl)-2,3-dihydro-1H-pyrrolo[3,4-b]quinolin-1-one]	7.52	0.4
COc1ccc(OC)c(-c2cccc3c(N)c4c(nc23)CN(Cc2ccc3c(c2)OCO3)C4=O)c1 [9-amino-2-(benzo[d][1,3]dioxol-5-ylmethyl)-5-(2,5-dimethoxyphenyl)-2,3-dihydro-1H-pyrrolo[3,4-b]quinolin-1-one]	7.22	0.33
Cc1cc(C)cc(-c2cccc3c(N)c4c(nc23)CN(C)C4=O)c1 [9-amino-5-(3,5-dimethylphenyl)-2-methyl-2,3-dihydro-1H-pyrrolo[3,4-b]quinolin-1-one]	7.18	
CCCN1Cc2nc3c(-c4cccc(Cl)c4)cccc3c(N)c2C1=O [9-amino-5-(3-chlorophenyl)-2-propyl-2,3-dihydro-1H-pyrrolo[3,4-b]quinolin-1-one]	7.12	
CCCN1Cc2nc3c(-c4cccc(F)c4OC)cccc3c(N)c2C1=O [9-amino-5-(3-fluoro-2-methoxyphenyl)-2-propyl-2,3-dihydro-1H-pyrrolo[3,4-b]quinolin-1-one]	7.24	
COc1cc(F)cc(-c2cccc3c(N)c4c(nc23)CN(C)C4=O)c1 [9-amino-5-(3-fluoro-5-methoxyphenyl)-2-methyl-2,3-dihydro-1H-pyrrolo[3,4-b]quinolin-1-one]	7.09	
CCCN1Cc2nc3c(-c4ccc(F)cc4)cccc3c(N)c2C1=O [9-amino-5-(4-fluorophenyl)-2-propyl-2,3-dihydro-1H-pyrrolo[3,4-b]quinolin-1-one]	7.11	
CCCN1Cc2nc3c(-c4cnc(OC)c(F)c4)cccc3c(N)c2C1=O [9-amino-5-(5-fluoro-6-methoxypyridin-3-yl)-2-propyl-2,3-dihydro-1H-pyrrolo[3,4-b]quinolin-1-one]	7.09	
CCCN1Cc2nc3c(-c4cnc(Cl)c(C)c4)cccc3c(N)c2C1=O [9-amino-5-(6-chloro-5-methylpyridin-3-yl)-2-propyl-2,3-dihydro-1H-pyrrolo[3,4-b]quinolin-1-one]	7.07	
COc1cccc(F)c1-c1cccc2c(N)c3c(nc12)CN(C1CC1)C3=O [Example 16, 9-Amino-2-cyclopropyl-5-(2-fluoro-6-methoxyphenyl)-2,3-dihydropyrrolo[3,4-b]quinolin-1-one]	8.44 and 8.20	
CCN1Cc2nc3c(-c4cnc(OC)nc4OC)c(F)ccc3c(N)c2C1=O [Example 34, 9-Amino-5-(2,4-dimethoxypyrimidin-5-yl)-2-ethyl-6-fluoro-2,3-dihydropyrrolo[3,4-b]quinolin-1-one]	7.78	
COc1ccc(-c2c(F)ccc3c(N)c4c(nc23)CN(C2CC2)C4=O)c(OC)n1 [Example 54, 9-Amino-2-cyclopropyl-5-(2,6-dimethoxypyridin-3-yl)-6-fluoro-2,3-dihydropyrrolo[3,4-b]quinolin-1-one]	7.84	

Now from value to compound:

pKi [1]	Relative Potentiation for GABAA1 (GABAA receptor α1β2γ2)	Structure (SMILES)
8.57	0.21	COc1ccc(CN2Cc3nc4c(-c5ccc(C)nc5C)cccc4c(N)c3C2=O)cc1OC [9-amino-2-(3,4-dimethoxybenzyl)-5-(2,6-dimethylpyridin-3-yl)-2,3-dihydro-1H-pyrrolo[3,4-b]quinolin-1-one]
8.64	0.12	COc1ccc(CN2Cc3nc4c(-c5cccnc5OC)cccc4c(N)c3C2=O)cc1OC [9-amino-2-(3,4-dimethoxybenzyl)-5-(2-methoxypyridin-3-yl)-2,3-dihydro-1H-pyrrolo[3,4-b]quinolin-1-one]
8.33	0.26	COc1ccc(-c2cccc3c(N)c4c(nc23)CN(Cc2ccc(OC)c(OC)c2)C4=O)c(C)n1 [9-amino-2-(3,4-dimethoxybenzyl)-5-(6-methoxy-2-methylpyridin-3-yl)-2,3-dihydro-1H-pyrrolo[3,4-b]quinolin-1-one]
8.22	0.22	COc1ccc(CN2Cc3nc4c(-c5cncc(OC)c5)cccc4c(N)c3C2=O)cc1 [9-amino-2-(4-methoxybenzyl)-5-(5-methoxypyridin-3-yl)-2,3-dihydro-1H-pyrrolo[3,4-b]quinolin-1-one]
8.24	0.24	COc1ncccc1-c1cccc2c(N)c3c(nc12)CN(Cc1ccc2c(c1)OCO2)C3=O [9-amino-2-(benzo[d][1,3]dioxol-5-ylmethyl)-5-(2-methoxypyridin-3-yl)-2,3-dihydro-1H-pyrrolo[3,4-b]quinolin-1-one]
8.08		COc1ccc(-c2c(F)ccc3c(N)c4c(nc23)CN(C2CC2)C4=O)c(OC)c1 [Example 28, 9-Amino-2-cyclopropyl-5-(2,4-dimethoxyphenyl)-6-fluoro-2,3-dihydropyrrolo[3,4-b]quinolin-1-one]
8.61		CCN1Cc2nc3c(-c4cnccc4OC)c(F)ccc3c(N)c2C1=O [Example 36, 9-Amino-2-ethyl-6-fluoro-5-(4-methoxypyridin-3-yl)-2,3-dihydropyrrolo[3,4-b]quinolin-1-one]
9.11		COc1ccc(-c2c(F)ccc3c(N)c4c(nc23)CN(C2CCC2)C4=O)c(OC)n1 [Example 52, 9-Amino-2-cyclobutyl-5-(2,6-dimethoxypyridin-3-yl)-6-fluoro-2,3-dihydropyrrolo[3,4-b]quinolin-1-one]
8.46		CCCN1Cc2nc3c(-c4c(F)cccc4OC)c(F)ccc3c(N)c2C1=O [Example 55, 9-Amino-6-fluoro-5-(2-fluoro-6-methoxyphenyl)-2-propyl-2,3-dihydropyrrolo[3,4-b]quinolin-1-one]
